{
  "source": "patent US6696545B1",
  "about": "“Cytomodulating lipophilic peptides for modulating immune system activity and inhibiting inflammation” (Sangstat Medical Corporation, priority 1997, dated 2004)",
  "key": {"[1]": {"system": "T-cell proliferation (spleen cells isolated from CBA mice stimulated with anti-CD3 monoclonal antibody)", "test": "Antiproliferative activity: anti-CD3 stimulated spleen cells, [3H]-TdR incorporation", "format": "cell-based, mouse", "conditions": "3 days", "source_text": "Adult 6-8 week old male C57BL6/J (B6, […]), Balb/c(H-2^d) and CBA/J (H-2^k) mice were purchased from the Jackson Laboratory, Bar Harbor, Me. They were kept and maintained in the animal facility in the SangStat Medical Corporation according to NIH guidelines and regulations of the Department of Health.\nPeptides were synthesized at synt:em (Nimes, France) using an automated peptide synthesizer and Fmoc chemistry. All peptides were synthesized as amides and then converted to acetate salts. Peptides were purified by preparative reverse phase HPLC and shown to be >95% homogenous by analytical reverse phase HPLC. Amino acid content was confirmed by amino acid analysis. Before use, peptides were first dissolved in 1 volume of DMSO (Sigma) followed by addition of 99 volume of culture medium. The final concentration of DMSO in culture was not greater than 0.25%. […]\nSpleen cells isolated from CBA mice were then stimulated (2×10^5/well) with anti-CD3 monoclonal antibody (Pharmingen, San Diego) at a final concentration of 0.1 to 1 μg/ml in 96-well, round-bottom microculture plates (Nunc, Denmark). bc peptides at various concentrations were added at the beginning of the culture. […] Cells were then harvested using a Filtermate 196 Harvester (Packard, Downers Grove, Ill.) and the degree of thymidine incorporation was measured using a TopCount Microplate Scintillation Counter (Packard)."}, "[2]": {"system": "T-cell mediated lysis of EL4 target cells by CBA to B6 effector cells", "test": "Cytotoxic T-cell activity, 51Cr release assay", "format": "cell-based, mouse", "conditions": "concentrations up to 100 μg/ml, 4-hour incubation", "protocol": "To assay the effect of peptides on cytotoxic T cell activity, CBA to B6 effector cells were prepared following a 6-day culture of 4×10^6 CBA spleen cells with 5×10^6 mitomycin-treated B6 spleen cells in wells of a 24 well plate (Nuncion Delta, Nunc, Denmark) in RPMI-1640 with 10% FBS. Effector cells were then harvested and washed. EL4 (H-2^b), a mouse lymphoma induced in C57BL/6N was used as target cells. Cultured EL4 cells were maintained and sub-cultured once every three days […] Effector (E) and target (T) cells were then added into V-shaped tissue culture plates (Nunc, Denmark) at E:T ratios of 3:1, 10:1, 30:1, 100:1, respectively. Peptides were diluted to the working concentrations with R-10 medium and added at the beginning of the 4-hour incubation period. For the determination of maximal release, 1% Triton X-100 was added to separate wells. Plates were then centrifuged for 2 min. to increase cellular contact before the 4-hour incubation period. After incubation, 75 μl supernatant from each well was collected and the amount of ^51Cr was counted using a TopCount Scintillation Counter. The degree of cell lysis was calculated using the formula below: [formula]"}, "[3]": {"molecular_target": "T1, heme oxygenase (HO, hsp32) (Mus musculus, UniProt P14901)", "T1 construct": "Spleen homogenates were used as the source of HO for all activity measurements; from tissue; host or cells: mouse spleen homogenate", "T1 sequence (P14901 1-289)": "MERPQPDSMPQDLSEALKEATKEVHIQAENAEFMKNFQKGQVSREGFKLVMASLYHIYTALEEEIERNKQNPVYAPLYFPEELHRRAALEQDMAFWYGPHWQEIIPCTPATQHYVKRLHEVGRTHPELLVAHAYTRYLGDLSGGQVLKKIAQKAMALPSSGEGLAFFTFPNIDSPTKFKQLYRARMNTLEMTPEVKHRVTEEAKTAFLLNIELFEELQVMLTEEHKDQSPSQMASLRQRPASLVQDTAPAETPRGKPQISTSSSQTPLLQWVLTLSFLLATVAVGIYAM", "test": "Heme oxygenase activity in spleen homogenate (bilirubin formation)", "format": "biochemical", "conditions": "control peptide", "protocol": "The effect of the bc peptides on hsp32 (heme oxygenase) was evaluated by measuring heme oxygenase (HO) in the presence or absence of bc peptides. Specifically, mouse spleen samples were homogenized on ice in a Tris-Cl lysis buffer (pH 7.4) containing 0.5% Triton X-100 and protease inhibitors. Samples were frozen in small aliquots until use. Spleen homogenates were used as the source of HO for all activity measurements. Biliverdin reductase was purified from rat liver by the method described by Kutty and Maines, J. Biol Chem., 256:3956 (1981). HO activity was measured by mixing 100 μl of spleen homogenate with 0.8 mM NADPH, 0.8 mM glucose-6-phosphate, 1.0 unit G-6-P dehydrogenase, 1 mM MgCl2 and 10 μl of biliverdin reductase at 4° C. The reaction was initiated by the addition of Hemin (20 μl of 2.5 mM). The reaction mixture was incubated at 37° C. in the dark for 30 min. At the end of the incubation period, any insoluble material was centrifuged and supernatants were analyzed for bilirubin concentration by a modified procedure of Hillman and Beyer, Z. Klin. Chem. 5:92 (1981) (Sigma Diagnostics, kit #552). Controls included spleen samples in the absence of the NADPH generating system and all components of the reaction mixture in the absence of the spleen homogenates."}, "[4]": {"system": "LPS-induced septic shock in mice", "test": "LPS septic shock model, survival", "format": "in vivo, mouse", "conditions": "20 mg/kg peptide in mannitol 16 h before 100 mg/kg LPS", "source_text": "Administration of LPS to mice provides an accepted animal model for septic shock (see Otterbein et al., Amer. J. Physiol. 272(2):1 (1997), Albrecht et al., Hepatology 26:1553-1559 (1997), Haziot et al., J. Immunol. 154:6529-6532 (1995) and Otterbein et al., Am. J. Respir. Cell Mol. Biol. 13:595-601 (1995)). To provide further evidence of the utility of bc peptides for the treatment of inflammatory responses and inflammatory conditions (such as septic shock), we tested the effect of bc peptides on the survival of mice following administration of LPS thereto. Specifically, mice were treated with 20 mg/kg of control peptide 2705 or bc peptide in mannitol or with mannitol alone. Sixteen hours after administration of the peptide in mannitol or mannitol alone, the mice were injected with 100 mg/kg LPS and survival of the mice was monitored twice daily."}, "[5]": {"system": "TNF-α production by RAW264.7 macrophage cells", "test": "LPS-stimulated TNF-α production, ELISA of culture supernatants", "format": "cell-based", "conditions": "10 μg/ml LPS, 1 to 100 μM peptide, 24 hours", "protocol": "In order to determine the effect of bc peptides on the production of inflammatory cytokines, RAW264.7 macrophage cells were stimulated in culture with 10 μg/ml bacterial lipopolysaccharide (LPS) to produce the inflammatory cytokine tumor necrosis factor-α (TNF-α) (see […] et al., J. Immunol. 153:1674 (1994) and Tonetti et al., Biochem. Biophys. Res. Comm. 230:636-640 (1997)), either in the absence or presence (1 to 100 μM) of test peptide. Following incubation for 24 hours, the amount of TNF-α in the culture supernatents was determined by ELISA."}, "[6]": {"molecular_target": "T2, recombinant hsc70 (Bos taurus, UniProt P19120)", "T2 construct": "purchased Stressgen, Victoria, Canada", "T2 sequence (P19120 2-650 limits assumed)": "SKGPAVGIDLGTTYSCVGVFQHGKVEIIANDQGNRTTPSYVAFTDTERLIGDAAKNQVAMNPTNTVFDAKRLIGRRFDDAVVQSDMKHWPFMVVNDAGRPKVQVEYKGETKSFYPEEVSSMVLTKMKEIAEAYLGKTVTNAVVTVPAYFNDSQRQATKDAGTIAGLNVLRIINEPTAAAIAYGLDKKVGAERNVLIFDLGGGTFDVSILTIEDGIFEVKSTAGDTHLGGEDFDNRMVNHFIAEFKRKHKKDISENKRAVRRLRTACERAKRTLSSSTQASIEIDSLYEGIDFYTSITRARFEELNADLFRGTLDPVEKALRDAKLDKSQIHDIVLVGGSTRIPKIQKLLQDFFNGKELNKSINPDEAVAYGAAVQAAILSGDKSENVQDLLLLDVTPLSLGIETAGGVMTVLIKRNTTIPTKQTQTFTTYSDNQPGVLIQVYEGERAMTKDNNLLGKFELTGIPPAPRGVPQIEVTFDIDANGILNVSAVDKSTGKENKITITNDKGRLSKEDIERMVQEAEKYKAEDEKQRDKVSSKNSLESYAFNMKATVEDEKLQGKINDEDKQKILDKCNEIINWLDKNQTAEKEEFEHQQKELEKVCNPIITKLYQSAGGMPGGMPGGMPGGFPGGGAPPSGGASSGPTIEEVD", "test": "hsc70 binding ELISA / competition with biotinylated-2702.75-84", "protocol": "To determine if bc peptides are capable of binding to hsc70, protein binding assays were performed. Specifically, peptide 2702.75-84 was synthesized in a biotinylated form with biotin attached to the N-terminus via a six carbon spacer. ELISA plates (Nunc Maxisorb, Nunc, USA) were coated with 100 ng/ml of recombinant hsc70 (Stressgen, Victoria, Canada) in 100 mM Na-citrate buffer, pH 4.0 overnight at 4° C. Subsequently, remaining binding sites were blocked by incubating the plates with PBS/0.1% Tween 20 (PBS/Tween; Sigma) for 2 hours at room temperature. Unbound material was removed by washing the plates three times with PBS/Tween. Following the addition of biotinylated 2702.75-84 in PBS/Tween/1% DMSO, the plates were incubated for 2 hours at room temperature, washed three times, incubated with 0.1 μg/ml streptavidin conjugated to horseradish peroxidase (streptavidin-HRP) (Jackson ImmunoResearch Laboratories, West Grove, Pa.) and washed again. Bound streptavidin-HRP was detected using 3 mg/ml o-phenylenediamine (OPD; Sigma) in substrate buffer (SangStat, Menlo Park, Calif.). The reaction was stopped by addition of 1M HCl and absorbance (OD490-OD605) was measured using an ELISA plate reader. Binding of unlabeled peptide was measured in a competition assay. […] Bound biotinylated-2702.75-84 was then detected as described above."}, "[7]": {"system": "C57B1/6 heart allograft in CBA mice", "test": "Vascularized fully mismatched heterotopic heart allograft model", "format": "in vivo, mouse", "conditions": "intraperitoneal", "protocol": "The immunosuppressive activity of the bc peptides was evaluated in a vascularized fully mismatched mouse heart allograft model. Specifically, abdominal heterotopic heart transplantation was performed as described previously by Ono and Lindsey, J. Thoracic Cardiovasc. Surg. 7:225 (1969)). CBA mice recipients of C57B1/6 hearts were treated daily with various doses of peptide following organ transplantation. Peptides were dissolved in DMSO and diluted in PBS (final DMSO concentration was 10%) before intraperitoneal administration. Animals were treated starting at the day of transplantation until day five or nine. Graft survival was monitored daily by direct palpation, and rejection was defined as termination of palpable cardiac contractility. The statistical significance of prolongation of heart allograft survival was calculated using the Mann-Whitney test."}, "[8]": {"system": "C57BL/6 neonatal heart allograft in CBA/J recipient mice", "test": "Heterotopic neonatal cardiac transplant into ear pinnae, direct injection into allograft", "format": "in vivo, mouse", "protocol": "We next sought to determine if local delivery of bc peptides via plasmid-mediated gene transfer could extend in vivo transplant survival in a murine heterotopic cardiac transplant model. Specifically, C57BL/6 donor neonatal hearts were transplanted subcutaneously into the ear pinnae of CBA/J recipient mice, bc peptide, or 20 μg of plasmid DNA encoding the bc peptide of interest, was injected directly into the allograft at the time of transplantation. Survival of the allografts was determined by electrocardiogram monitoring and rejection was determined as the cessation of cardiac electrical activity. Graft survival is expressed in days (mean±SEM). Statistical significance was determined by an unpaired Student's t-test."}},
  "note": "Ends that are not written are not given here.",
  "data": [
    {"compound": "REDLRTLLRY [compound 2705]", "values": [
      {"measurement": "effect on T-cell proliferation", "setting": "[1]", "result": "no effect"},
      {"measurement": "effect on T-cell mediated target cell lysis", "setting": "[2]", "result": "no effect"},
      {"measurement": "effect on HO activity", "setting": "[3]", "result": "inactive"},
      {"measurement": "survival of mice after LPS", "setting": "[4]", "result": "died on day one"}
    ]},
    {"compound": "RVNLPIALRY [D2RP, control peptide]", "values": [
      {"measurement": "inhibition of the production of TNF-α", "setting": "[5]", "result": "no ability to inhibit"}
    ]},
    {"compound": "biotinylated-2702.75-84: peptide 2702.75-84 with biotin attached to the N-terminus via a six carbon spacer", "values": [
      {"measurement": "binding to hsc70 coated ELISA plates", "setting": "[6]; direct binding, streptavidin-HRP detection", "result": "dose dependent binding"}
    ]},
    {"compound": "CC[C@H](C)[C@H](NC(=O)[C@H](CCCNC(=N)N)NC(=O)[C@H](CC(C)C)NC(=O)[C@H](CC(N)=O)NC(=O)[C@H](CCC(=O)O)NC(=O)[C@@H](N)CCCNC(=N)N)C(=O)N[C@@H](C)C(=O)N[C@@H](CC(C)C)C(=O)N[C@@H](CCCNC(=N)N)C(=O)N[C@@H](Cc1ccc(O)cc1)C(N)=O", "note": "[2702.75-84, Arg-Glu-Asn-Leu-Arg-Ile-Ala-Leu-Arg-Tyr]", "values": [
      {"measurement": "effect on transplant survival over the control treatment", "setting": "[7]; 40 mg/kg/day", "result": "no observable effect"},
      {"measurement": "heart allograft survival", "setting": "[7]; 80 mg/kg/day (days 0-9), PBS/DMSO controls 8±1.4 days", "result": "10.7±2.6", "unit": "days"},
      {"measurement": "IC50", "setting": "[6]; competition with 3 μM biotinylated-2702.75-84, 3 hrs room temperature, read-out: Half maximal inhibition (IC50) of binding of biotinylated-2702.75-84 to hsc70", "result": "7 ± 3", "unit": "µM"},
      {"measurement": "Graft survival (mean±SEM)", "setting": "[8]; 1 μg peptide injected directly into the allograft, untreated controls 13.9±0.9", "result": "13.3 ± 0.75", "unit": "days"},
      {"measurement": "Graft survival (mean±SEM)", "setting": "[8]; 400 μg peptide injected directly into the allograft", "result": "22.0 ± 0.58", "unit": "days"}
    ]}
  ]
}
